Laboratory results taken from the supplement of paper PMC4862054.

Legend:
Conditions in all cases: incubation time: 72 h
HCC1937 [1] = assay: normalised response (% of control), CellTox Green; higher = less cell death (100 = DMSO, 0 = benzethonium chloride kill control)
Method in brief: (§1)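 Breast cancer cell lines were exposed for 72 h in 384-well plates to compound at 5 concentrations, 10-fold apart, covering a 10,000-fold range fixed for each compound. Plates were read for CellTox Green fluorescence and CellTiter-Glo luminescence and normalised to 0.1 % DMSO (100) and a positive kill control (0). Each value is the normalised signal at one concentration of the series.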

CAL-148 [2] = assay: as above
Method in brief: as §1

CAL-120 [3] = assay: as above
Method in brief: as §1

CAL-85-1 [4] = assay: as above
Method in brief: as §1

MDA-MB-468 [5] = assay: as above
Method in brief: as §1

BT-549 [6] = assay: as above
Method in brief: as §1

MDA-MB-453 [7] = assay: as above
Method in brief: as §1

BT-474 [8] = assay: as above
Method in brief: as §1

MDA-MB-231 [9] = assay: as above
Method in brief: as §1

Hs578T [10] = assay: as above
Method in brief: as §1

HCC1143 [11] = assay: as above
Method in brief: as §1

HCC1599 [12] = assay: as above
Method in brief: as §1

MFM-223 [13] = assay: as above
Method in brief: as §1

MCF-10A [14] = assay: as above
Method in brief: as §1

HDQ-P1 [15] = assay: as above
Method in brief: as §1

DU-4475 [16] = assay: as above
Method in brief: as §1

CAL-51 [17] = assay: as above
Method in brief: as §1

MDA-MB-436 [18] = assay: as above
Method in brief: as §1

HCC1937 [19] = assay: normalised response (% of control), CellTiter-Glo; higher = more viable cells (100 = DMSO, 0 = benzethonium chloride kill control)
Method in brief: as §1

CAL-148 [20] = assay: as above
Method in brief: as §1

CAL-120 [21] = assay: as above
Method in brief: as §1

CAL-85-1 [22] = assay: as above
Method in brief: as §1

MDA-MB-468 [23] = assay: as above
Method in brief: as §1

BT-549 [24] = assay: as above
Method in brief: as §1

MDA-MB-453 [25] = assay: as above
Method in brief: as §1

BT-474 [26] = assay: as above
Method in brief: as §1

MDA-MB-231 [27] = assay: as above
Method in brief: as §1

Hs578T [28] = assay: as above
Method in brief: as §1

HCC1143 [29] = assay: as above
Method in brief: as §1

HCC1599 [30] = assay: as above
Method in brief: as §1

SK-BR-3 = assay: as above
Method in brief: as §1

MFM-223 [31] = assay: as above
Method in brief: as §1

MCF-10A [32] = assay: as above
Method in brief: as §1

HDQ-P1 [33] = assay: as above
Method in brief: as §1

DU-4475 [34] = assay: as above
Method in brief: as §1

CAL-51 [35] = assay: as above
Method in brief: as §1

MDA-MB-436 [36] = assay: as above
Method in brief: as §1

Structure (SMILES)	normalised response (HCC1937 [1])	normalised response (CAL-148 [2])	normalised response (CAL-120 [3])	normalised response (CAL-85-1 [4])	normalised response (MDA-MB-468 [5])	normalised response (BT-549 [6])	normalised response (MDA-MB-453 [7])	normalised response (BT-474 [8])	normalised response (MDA-MB-231 [9])	normalised response (Hs578T [10])	normalised response (HCC1143 [11])	normalised response (HCC1599 [12])	normalised response (MFM-223 [13])	normalised response (MCF-10A [14])	normalised response (HDQ-P1 [15])	normalised response (DU-4475 [16])	normalised response (CAL-51 [17])	normalised response (MDA-MB-436 [18])	normalised response (HCC1937 [19])	normalised response (CAL-148 [20])	normalised response (CAL-120 [21])	normalised response (CAL-85-1 [22])	normalised response (MDA-MB-468 [23])	normalised response (BT-549 [24])	normalised response (MDA-MB-453 [25])	normalised response (BT-474 [26])	normalised response (MDA-MB-231 [27])	normalised response (Hs578T [28])	normalised response (HCC1143 [29])	normalised response (HCC1599 [30])	normalised response (SK-BR-3)	normalised response (MFM-223 [31])	normalised response (MCF-10A [32])	normalised response (HDQ-P1 [33])	normalised response (DU-4475 [34])	normalised response (CAL-51 [35])	normalised response (MDA-MB-436 [36])
Cc1ccc(-c2cc(C(F)(F)F)nn2-c2ccc(S(N)(=O)=O)cc2)cc1 [Celecoxib] (100 nM)	106%	95.4%	102%	101%	89.2%	90.5%	104%	99.5%	93.2%	96.8%	98.9%	95.6%	98.7%	102%	101%	101%	111%	71.4%	94%	95.4%	103%	97.6%	98.9%	100%	110%	99%	101%	111%	104%	98.1%	102%	104%	97.8%	94.7%	103%	110%	97.4%
Nc1nc(F)nc2c1ncn2[C@@H]1O[C@H](CO)[C@@H](O)[C@@H]1O [Fludarabine] (100 nM)	116%	107%	101%	101%	131%		108%	99.6%	116%	99.5%	119%	108%	104%	98.4%	101%	105%	109%	101%	98.3%	107%	101%	101%	113%	102%	120%	106%	119%	107%	102%	122%	108%	111%	113%	98.8%	106%	94.1%	101%
C=CC(=O)N1CCC[C@@H](n2nc(-c3ccc(Oc4ccccc4)cc3)c3c(N)ncnc32)C1 [Ibrutinib] (10 nM)	118%	84.5%	98.7%	95.8%	92.8%	87%	77.9%	96.3%	110%	93.2%	114%	107%	100%	63.2%	107%	101%	112%	100%	94.2%	109%	106%	99.5%	98.4%	99.8%	87.3%	104%	108%	106%	105%	105%	67.4%	110%	102%	89%	100%	113%	103%
O=C(Cc1ccc(-c2ccc(OCCN3CCOCC3)cc2)cn1)NCc1ccccc1 [KX2-391] (100 nM)	98.5%	65.5%	87.3%	30.9%	-39.4%	78.5%	101%	85.1%	51.3%	-25.9%	109%	93.7%	75.7%	55.3%	80.7%	95.7%	35.6%	76.9%	73.2%	40.6%	67.8%	31.8%	44.6%	50.1%	72.7%	66%	64.4%	29.9%	44.7%	32.3%	19.5%	63.1%	61%	72.6%	49.4%	32.2%	39.5%
CCN(CC)CCCC(C)Nc1c2ccc(Cl)cc2nc2ccc(OC)cc12 (centres undefined) [Mepacrine] (500 nM)	111%	74.7%	-33%	104%	109%	103%	104%	103%	99.1%	63.5%	109%	93.8%	96.9%	85.1%	85.1%	108%	66.9%	82.7%	98.4%	86.1%	44.1%	103%	93.1%	113%	101%	98.9%	103%	98.7%	104%	101%	90.8%	97.2%	105%	104%	99.8%	64%	106%
